Reference: ChEMBL document CHEMBL1201862, “PubChem BioAssay data set” (2004)
The source made the active and inactive calls.

Key:
[1] = target: T1, Probable nicotinate-nucleotide adenylyltransferase (Staphylococcus aureus (strain N315), UniProt P65502); format: functional, Staphylococcus aureus subsp. aureus N315;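 on IC50 Mean: confirmatory dose-response retesting of NadD inhibitor hits first found in an ultra-high-throughput screen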
[2] = target: T1, Probable nicotinate-nucleotide adenylyltransferase; format: functional, Staphylococcus aureus subsp. aureus N315; details: read-out: IC50_Mean
fMet-Leu-Phe receptor = target: T2, fMet-Leu-Phe receptor (Homo sapiens, UniProt P21462); assay: FPR ligands, dose response (AID 519); format: functional
T2 sequence (P21462 whole entry): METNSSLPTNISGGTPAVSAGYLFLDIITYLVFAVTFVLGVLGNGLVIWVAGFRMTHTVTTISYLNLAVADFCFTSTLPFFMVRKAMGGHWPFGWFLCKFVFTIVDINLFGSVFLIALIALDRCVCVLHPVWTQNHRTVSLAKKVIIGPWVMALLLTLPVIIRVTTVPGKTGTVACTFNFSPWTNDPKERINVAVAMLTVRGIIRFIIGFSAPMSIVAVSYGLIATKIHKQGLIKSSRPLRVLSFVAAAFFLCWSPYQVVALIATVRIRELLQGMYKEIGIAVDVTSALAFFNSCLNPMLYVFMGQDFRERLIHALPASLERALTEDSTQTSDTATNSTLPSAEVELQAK

[3] = target: T3, Heat shock factor protein 1 (Mus musculus, UniProt P38532); assay: inhibition of MG132-induced HSE-luciferase signal, confirmation, cell-based, NIH3T3, luminescence, dose retest (AID 2382); format: functional;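 further: NIH3T3 fibroblasts with HSF1-driven luciferase reporter stressed by proteasome inhibitor MG132; luminescence from HSF1-driven luciferase expression after 8 hours of MG132 stress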
T3 sequence (P38532 whole entry): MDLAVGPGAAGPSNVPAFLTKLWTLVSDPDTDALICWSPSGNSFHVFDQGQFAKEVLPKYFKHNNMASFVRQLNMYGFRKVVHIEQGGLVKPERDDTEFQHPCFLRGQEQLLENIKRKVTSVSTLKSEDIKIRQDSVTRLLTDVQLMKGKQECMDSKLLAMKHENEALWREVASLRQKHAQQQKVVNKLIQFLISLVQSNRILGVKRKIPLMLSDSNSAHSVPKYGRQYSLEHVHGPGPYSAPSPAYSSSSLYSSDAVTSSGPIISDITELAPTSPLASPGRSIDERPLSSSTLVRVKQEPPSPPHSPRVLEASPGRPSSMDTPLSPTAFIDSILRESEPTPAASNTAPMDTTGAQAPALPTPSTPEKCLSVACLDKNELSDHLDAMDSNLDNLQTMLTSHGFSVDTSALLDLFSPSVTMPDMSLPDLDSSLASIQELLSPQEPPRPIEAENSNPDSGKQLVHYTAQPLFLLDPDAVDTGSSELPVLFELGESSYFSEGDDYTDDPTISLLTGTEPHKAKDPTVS

HEK293 = assay: inhibitors of LMP1-driven NF-kB reporter, dose response, cell-based, HEK293, luciferase, cherry-pick (AID 588343); format: functional, Homo sapiens; details: Homo sapiens, HEK293
Interleukin-8 [4] = target: T4, Interleukin-8 (Homo sapiens, UniProt P10145); assay: Dose Response confirmation of uHTS small molecule hits for cystic fibrosis induced NFkb Inhibitors in a TNFa-induced IL8 counterscreen.; format: functional; details: read-out: IC50_Mean
T4 sequence (P10145 whole entry): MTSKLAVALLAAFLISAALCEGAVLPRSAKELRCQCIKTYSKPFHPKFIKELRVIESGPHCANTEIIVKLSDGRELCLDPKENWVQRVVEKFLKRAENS

Interleukin-8 [5] = target: T4, Interleukin-8; assay: Dose Response confirmation of uHTS small molecule hits for cystic fibrosis induced NFkb Inhibitors in a PAF-induced IL8 counterscreen.; format: functional; details: read-out: IC50_Mean
[6] = target: T5, Corticotropin-releasing factor receptor 2/Corticotropin-releasing factor-binding protein (Homo sapiens, UniProt P24387+Q13324); assay: activators of CRF receptor 2 with binding protein – uHTS hits, confirmation (AID 602473); format: functional; details: read-out: EC50_Mean
T5 sequence (Q13324 whole entry): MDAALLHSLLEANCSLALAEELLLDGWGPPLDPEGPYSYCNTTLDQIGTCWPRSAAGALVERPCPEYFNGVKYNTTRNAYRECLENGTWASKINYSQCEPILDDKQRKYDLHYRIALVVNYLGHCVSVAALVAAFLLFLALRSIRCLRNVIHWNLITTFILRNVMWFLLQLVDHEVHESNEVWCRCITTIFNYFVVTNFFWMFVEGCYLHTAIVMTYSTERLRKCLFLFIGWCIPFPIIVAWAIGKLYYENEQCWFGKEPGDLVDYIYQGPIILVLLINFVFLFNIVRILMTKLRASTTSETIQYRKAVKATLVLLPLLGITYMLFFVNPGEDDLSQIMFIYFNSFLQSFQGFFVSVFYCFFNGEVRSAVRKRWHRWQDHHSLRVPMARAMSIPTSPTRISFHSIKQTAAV
T5 sequence (P24387 whole entry): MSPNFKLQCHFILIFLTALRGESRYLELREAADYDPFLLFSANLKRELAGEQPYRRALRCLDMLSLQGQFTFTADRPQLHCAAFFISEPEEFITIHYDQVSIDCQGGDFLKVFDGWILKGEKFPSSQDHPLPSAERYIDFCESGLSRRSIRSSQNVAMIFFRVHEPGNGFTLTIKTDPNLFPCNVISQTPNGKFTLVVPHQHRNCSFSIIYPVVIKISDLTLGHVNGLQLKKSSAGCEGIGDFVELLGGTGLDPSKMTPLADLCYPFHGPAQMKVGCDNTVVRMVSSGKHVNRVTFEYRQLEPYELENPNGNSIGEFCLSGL

Kallikrein-7 = Kallikrein-7 (Homo sapiens, UniProt P49862); assay: Fluorescence Intensity-based biochemical primary high throughput dose response assay to identify activators of kallikrein-7 (K7) zymogen.
Kallikrein-7, sequence (P49862 whole entry): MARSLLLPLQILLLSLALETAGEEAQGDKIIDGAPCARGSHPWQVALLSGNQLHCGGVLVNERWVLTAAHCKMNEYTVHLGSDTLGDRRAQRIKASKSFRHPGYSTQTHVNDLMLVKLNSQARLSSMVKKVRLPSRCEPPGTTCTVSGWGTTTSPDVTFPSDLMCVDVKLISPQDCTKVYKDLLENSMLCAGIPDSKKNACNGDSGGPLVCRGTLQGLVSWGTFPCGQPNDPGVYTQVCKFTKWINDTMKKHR

Beta-galactosidase = Beta-galactosidase (Escherichia coli, UniProt Q8VNN2); assay: Dose response counterscreen for EBI2 assay utilizing the enzyme, b-galactosidase.; format: functional
Beta-galactosidase, sequence (Q8VNN2 whole entry): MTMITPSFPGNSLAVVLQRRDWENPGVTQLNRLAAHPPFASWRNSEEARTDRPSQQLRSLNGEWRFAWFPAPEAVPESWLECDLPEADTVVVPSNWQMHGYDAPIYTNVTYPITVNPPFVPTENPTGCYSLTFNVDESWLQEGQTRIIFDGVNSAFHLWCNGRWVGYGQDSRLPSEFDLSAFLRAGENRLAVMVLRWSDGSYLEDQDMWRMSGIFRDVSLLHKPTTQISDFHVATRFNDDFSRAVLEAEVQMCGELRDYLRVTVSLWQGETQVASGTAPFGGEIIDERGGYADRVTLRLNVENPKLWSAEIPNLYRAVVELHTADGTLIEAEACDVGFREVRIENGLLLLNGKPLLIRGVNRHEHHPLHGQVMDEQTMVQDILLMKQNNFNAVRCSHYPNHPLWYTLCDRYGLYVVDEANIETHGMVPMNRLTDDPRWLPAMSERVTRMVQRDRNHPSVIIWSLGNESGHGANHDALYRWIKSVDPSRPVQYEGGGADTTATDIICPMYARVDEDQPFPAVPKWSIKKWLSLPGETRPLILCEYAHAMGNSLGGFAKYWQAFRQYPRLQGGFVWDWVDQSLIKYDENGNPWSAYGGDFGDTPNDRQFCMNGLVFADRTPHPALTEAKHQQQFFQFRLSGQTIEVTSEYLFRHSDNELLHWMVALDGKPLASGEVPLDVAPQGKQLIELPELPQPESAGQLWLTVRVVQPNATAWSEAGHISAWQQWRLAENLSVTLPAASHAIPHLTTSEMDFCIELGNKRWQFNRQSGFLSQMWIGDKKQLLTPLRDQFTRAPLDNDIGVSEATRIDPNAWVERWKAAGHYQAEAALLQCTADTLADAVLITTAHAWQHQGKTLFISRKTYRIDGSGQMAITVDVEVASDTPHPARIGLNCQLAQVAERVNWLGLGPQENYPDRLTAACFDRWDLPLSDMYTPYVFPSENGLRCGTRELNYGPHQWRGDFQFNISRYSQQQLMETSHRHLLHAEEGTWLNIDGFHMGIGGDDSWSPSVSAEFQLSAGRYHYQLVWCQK

[7] = HeLa cell cytotoxicity, dose response, cytotoxicity control for MgcRacGAP inhibitor project (AID 624300); format: functional
Cytochrome P450 2D6 = Cytochrome P450 2D6 (Homo sapiens, UniProt P10635);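 further: CYP2D6 member of a cytochrome P450 panel assay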
Cytochrome P450 2D6, sequence (P10635 whole entry): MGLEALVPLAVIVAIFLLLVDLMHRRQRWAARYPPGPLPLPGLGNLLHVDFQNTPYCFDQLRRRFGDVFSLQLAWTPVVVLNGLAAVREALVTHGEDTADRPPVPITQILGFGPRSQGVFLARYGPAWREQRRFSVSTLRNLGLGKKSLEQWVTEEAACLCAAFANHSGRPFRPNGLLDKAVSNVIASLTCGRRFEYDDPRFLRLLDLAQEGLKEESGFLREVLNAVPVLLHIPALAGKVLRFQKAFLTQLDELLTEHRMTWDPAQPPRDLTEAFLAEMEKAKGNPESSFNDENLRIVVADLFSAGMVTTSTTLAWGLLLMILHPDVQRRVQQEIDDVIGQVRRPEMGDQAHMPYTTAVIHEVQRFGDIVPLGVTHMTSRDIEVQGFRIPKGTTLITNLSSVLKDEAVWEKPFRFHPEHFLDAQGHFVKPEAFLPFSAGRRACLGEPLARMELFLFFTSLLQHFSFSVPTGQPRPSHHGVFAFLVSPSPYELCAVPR

T1 sequence (P65502 whole entry): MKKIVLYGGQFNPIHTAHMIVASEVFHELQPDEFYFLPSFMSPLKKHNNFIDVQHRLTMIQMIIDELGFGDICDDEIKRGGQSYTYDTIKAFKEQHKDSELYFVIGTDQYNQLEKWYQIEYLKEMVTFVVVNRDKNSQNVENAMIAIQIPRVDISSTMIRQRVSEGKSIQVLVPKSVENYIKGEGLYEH

**Q.** What does the source list for `Cc1cccc(-n2nc3c(c2NC(=O)c2ccco2)CSC3)c1C`?
**A.** IC50 [1]: 8.29 µM (active); IC50 [2]: 17.8 µM (active); Ki (fMet-Leu-Phe receptor): 22.9 µM (inactive)

**Q.** What does the source list for `CCCCN(c1ccccc1)c1ncnc(N)c1[N+](=O)[O-]`?
**A.** EC50 [3]: 8.33 µM (active); AC50 (HEK293): 14.3 µM (active); IC50 (Interleukin-8 [4]): 39.7 µM (inactive); IC50 (Interleukin-8 [5]): > 79 µM (inactive)

**Q.** What does the source list for `CCN1CCSc2ccc(C(=O)NCc3ccccc3F)cc21`?
**A.** EC50 [6]: > 53 µM (inactive); EC50 (Kallikrein-7): > 69.5 µM (inactive)

**Q.** Which IC50 (Beta-galactosidase) does the source give for `CN=C(S)N1N=C(c2ccc(C)cc2)CC1c1ccc(Cl)cc1` (stereo unspecified) here?
**A.** The IC50 was > 80 µM (inactive).

**Q.** For `CC(C)N(c1ccccc1)c1ccc(NC(S)=NCCN(C)C)cc1`, which CC50 [7] is on record?
**A.** Its CC50 is 100 µM (active).

**Q.** Which IC50 (Beta-galactosidase) does the source give for `CN=C(S)N1N=C(c2ccc(C)cc2)CC1c1ccc(Br)cc1` (stereo unspecified) here?
**A.** Its IC50 is > 80 µM (inactive).

**Q.** Which results are given for `c1cncc(CNc2ncnc3ccc(-c4ccoc4)cc23)c1`?
**A.** AC50 (HEK293): 5.33 µM (active); IC50 (Interleukin-8 [4]): > 79 µM (inactive); IC50 (Interleukin-8 [5]): 6.44 µM (active); AC50 (Cytochrome P450 2D6): 25.1 µM (inconclusive)
